Results from article PMC4947980 (Journal of Medicinal Chemistry, 2016).
≈ marks a conversion by molar mass, not a printed value. Where “and” joins values, the source holds several entries; their conditions need not be identical. Equal entries are not always repeated.

Key:
[1] = system: nonreplicating M. tuberculosis; experiment: microbe, parasite or virus in culture; format: cell-based, Mycobacterium tuberculosis mc^26220 (ΔpanCDΔlysA); conditions: for activity against nonreplicating M. tuberculosis, in words: multistress nonreplicating model; for NR-MIC90 3 days OD580 = 0.01 / NR-MIC90 3 days OD580 = 0.1: 3 days exposure
[2] = system: replicating M. tuberculosis; experiment: MIC90 against replicating M. tuberculosis; format: cell-based, Mycobacterium tuberculosis mc^26220 (ΔpanCDΔlysA); conditions: for R-MIC90 3 days OD580 = 0.01: replicating; for activity against replicating M. tuberculosis on addition of clavulanate: data not shown
[3] = system: nonreplicating wild-type M. tuberculosis; format: cell-based, Mycobacterium tuberculosis H37Rv; conditions: for bactericidal activity against nonreplicating wild-type M. tuberculosis (Figure S2): in words
[4] = Stability in cell-free PBS and nonreplicating medium; format: physicochemical; conditions: day 6; for d6: % remaining in PBS: cell-free PBS pH 7.4, 37 °C; for d6: % remaining NR medium + 0.5 mM NaNO2: cell-free nonreplicating medium pH 5.0 with 0.5 mM NaNO2, 37 °C; for d6: % remaining NR medium: cell-free nonreplicating medium pH 5.0 without NaNO2, 37 °C
[5] = Hydrolytic stability at pH 2, 7 and 12; format: physicochemical; conditions: percent remaining after a 4 h incubation at 37 °C
[6] = Solubility at pH 7.4; format: physicochemical; conditions: after shaking at room temperature for 4 h
[7] = Parallel artificial membrane permeability assay; format: in vitro ADME
[8] = Mouse liver microsomal stability; format: in vitro ADME; conditions: assayed at 0-60 min
[9] = system: nonreplicating M. tuberculosis; experiment: Charcoal agar resazurin assay; format: cell-based; conditions: for dose-dependent decrease of CARA fluorescence, effect of NaNO2: with or without 0.5 mM NaNO2, 7 days, OD580 0.1 or 0.01
[10] = system: intracellular M. tuberculosis; conditions: for CFU reduction of intracellular M. tuberculosis: IFNγ-activated macrophages, 100 μg/mL, 4 days (1) or 3 days (5)
[11] = Plasma stability, mouse; conditions: 1 μg/mL, 37 °C, parent ion monitored
[12] = Human liver microsomal stability; format: in vitro ADME; conditions: liver microsomes, human liver microsomes t1/2, assayed at 0-60 min
[13] = system: M. tuberculosis; conditions: cited from earlier work
[14] = nonreplicating, 6 days exposure

## COC(=O)C1=C(C)CS[C@@H]2[C@H](NC(=O)[C@H](N)c3ccccc3)C(=O)N12 [4a]
[1]
  activity against nonreplicating M. tuberculosis, in words: poorly active
[2]
  activity against replicating M. tuberculosis, in words: completely inactive

## CCCOC(=O)C1=C(C)CS[C@@H]2[C@H](NC(=O)[C@H](N)c3ccccc3)C(=O)N12 [4b]
[1]; Mycobacterium tuberculosis, read-out: NR d7 OD=0.1 MIC90
  MIC90: 15.5 µg/mL (≈ 39.8 µM)

## CC1=C(c2nc(C)no2)N2C(=O)[C@@H](NC(=O)[C@H](N)c3ccccc3)[C@H]2SC1 [4c]
[1]
  activity against nonreplicating M. tuberculosis, in words: poorly active
[2]
  activity against replicating M. tuberculosis, in words: completely inactive

## CCCCOC(=O)C1=C(C)CS[C@@H]2[C@H](NC(=O)CCc3ccccc3)C(=O)N12 [12e]
[3]
  bactericidal activity against nonreplicating wild-type M. tuberculosis (Figure S2): bactericidal

## CCOC(=O)C1=C(C)CS[C@@H]2[C@H](NC(=O)CCc3ccc(OC)cc3)C(=O)N12 [12i]
[3]
  bactericidal activity against nonreplicating wild-type M. tuberculosis (Figure S2): bactericidal

## CC1=C(c2nc(C)no2)N2C(=O)[C@@H](NC(=O)COc3ccc(Cl)cc3)[C@H]2SC1 [18d]
[3]
  bactericidal activity against nonreplicating wild-type M. tuberculosis (Figure S2): bactericidal

## CC1=C(c2nc(C)no2)N2C(=O)[C@@H](NC(=O)OCC(Cl)(Cl)Cl)[C@H]2SC1 [19d]
[3]
  bactericidal activity against nonreplicating wild-type M. tuberculosis (Figure S2): bactericidal

## CCCc1noc(C2=C(C)CS[C@@H]3[C@H](NC(=O)CCc4ccc(OC)cc4)C(=O)N23)n1 [21b]
[3]
  bactericidal activity against nonreplicating wild-type M. tuberculosis (Figure S2): bactericidal

## CCCc1noc(C2=C(C)CS[C@@H]3[C@H](NC(=O)COc4ccc(Cl)cc4)C(=O)N23)n1 [22c]
[3]
  bactericidal activity against nonreplicating wild-type M. tuberculosis (Figure S2): bactericidal

## C[C@@H](O)[C@H]1C(=O)N2C(C(=O)O)=C(S[C@@H]3CN[C@H](C(=O)N(C)C)C3)[C@H](C)[C@H]12 [Meropenem, reference compound]
[2]; addition of clavulanate
  enhancement of replicating MIC90 by clavulanate: 4 fold

## CC1=C(C(=O)O)N2C(=O)[C@@H](NC(=O)[C@H](N)c3ccccc3)[C@H]2SC1 [cephalexin 4, cephalexin, reference compound]
[1]
  activity against nonreplicating M. tuberculosis, in words: inactive
[1]; nonreplicating, OD580 = 0.01
  NR-MIC90 3 days OD580 = 0.01: 97.93 µg/mL
[1]; nonreplicating
  NR-MIC90 3 days OD580 = 0.1: 61.35 µg/mL
[1]; [14]
  NR-MIC90 6 days OD580 = 0.1: 70.42 µg/mL
[2]
  R-MIC90 3 days OD580 = 0.01: 33.99 µg/mL

## CCCOC(=O)C1=C(C)CS[C@@H]2[C@H](NC(=O)COc3ccccc3)C(=O)N12 [compound 1, Propyl (6R,7R)-3-Methyl-8-oxo-7-(2-phenoxyacetamido)-5-thia-1-azabicyclo[4.2.0]oct-2-ene-2-carboxylate]
[1]; nonreplicating, OD580 = 0.01
  NR-MIC90 3 days OD580 = 0.01: 0.90 µg/mL
[1]; nonreplicating
  NR-MIC90 3 days OD580 = 0.1: 1.76 µg/mL
[1]; nonreplicating, 6 days exposure, OD580 = 0.01
  NR-MIC90 6 days OD580 = 0.01: 0.64 µg/mL
[1]; [14]
  NR-MIC90 6 days OD580 = 0.1: 1.05 µg/mL
[2]; addition of clavulanate
  activity against replicating M. tuberculosis on addition of clavulanate: did not lead to activity
[2]
  R-MIC90 3 days OD580 = 0.01: >100 µg/mL
[4]
  d6: % remaining in PBS: stable
  d6: % remaining NR medium + 0.5 mM NaNO2: stable
  d6: % remaining NR medium: stable
[5]
  pH 2 stability: 100% and 110%
  pH 12 stability: 0.000%
[6]
  solubility: 22.7 µM (≈ 8.86 µg/mL)
[6]; pH 7.4, solubility
  solubility at 4 h: 23 µM (≈ 8.98 µg/mL)
[7]
  PAMPA log Pe: –5.15
[8]
  mouse liver microsomes t1/2: rapidly metabolized
[3]
  concentration that reduced colony-forming units by 2 log10: 0.7–0.8 μg/mL
[9]; CARA, OD580 0.01, 0.5 mM NaNO2
  enhancement of activity by nitrite: 32- to 64 fold
[9]
  dose-dependent decrease of CARA fluorescence, effect of NaNO2: strongly enhanced by the addition of NaNO2
[10]
  CFU reduction of intracellular M. tuberculosis: 1–2 log10
[11]
  stability in mouse plasma (time to complete transformation): < 5 min

## CCCOC(=O)N[C@@H]1C(=O)N2C(C(=O)OCCC)=C(C)CS[C@H]12 [compound 2]
[1]; nonreplicating, OD580 = 0.01
  NR-MIC90 3 days OD580 = 0.01: 3.11 µg/mL
[1]; nonreplicating
  NR-MIC90 3 days OD580 = 0.1: 2.61 µg/mL
[1]; [14]
  NR-MIC90 6 days OD580 = 0.1: 0.52 µg/mL
[2]; addition of clavulanate
  activity against replicating M. tuberculosis on addition of clavulanate: did not lead to activity
[2]
  R-MIC90 3 days OD580 = 0.01: 55.44 µg/mL
[4]
  d6: % remaining in PBS: stable
  d6: % remaining NR medium + 0.5 mM NaNO2: stable
  d6: % remaining NR medium: stable

## CCCN[C@@H]1C(=O)N2C(C(=O)OCCC)=C(C)CS[C@H]12 [compound 3]
[1]
  activity against nonreplicating M. tuberculosis, in words: significant activity
[1]; nonreplicating, OD580 = 0.01
  NR-MIC90 3 days OD580 = 0.01: 0.7 µg/mL
[1]; nonreplicating
  NR-MIC90 3 days OD580 = 0.1: 2.69 µg/mL
[1]; [14]
  NR-MIC90 6 days OD580 = 0.1: 0.45 µg/mL
[2]; addition of clavulanate
  activity against replicating M. tuberculosis on addition of clavulanate: did not lead to activity
[2]
  R-MIC90 3 days OD580 = 0.01: >100 µg/mL
[4]
  d6: % remaining NR medium + 0.5 mM NaNO2: unstable

## CC1=C(c2nc(C)no2)N2C(=O)[C@@H](NC(=O)COc3ccccc3)[C@H]2SC1 [compound 5, N-((6R,7R)-3-Methyl-2-(3-methyl-1,2,4-oxadiazol-5-yl)-8-oxo-5-thia-1-azabicyclo[4.2.0]oct-2-en-7-yl)-2-phenoxyacetamide]
[4]
  d6: % remaining NR medium + 0.5 mM NaNO2: stable
[5]
  pH 2 stability: 100%
  pH 12 stability: 0.000%
[6]
  solubility: 83.7 µM (≈ 32.3 µg/mL)
[7]
  PAMPA log Pe: –4.87
[8]
  mouse liver microsomes t1/2: rapidly metabolized
[12]
  half-life: ~1.33 h
[3]
  concentration that reduced colony-forming units by 2 log10: 0.7–0.8 μg/mL
  bactericidal activity against nonreplicating wild-type M. tuberculosis (Figure S2): bactericidal
[9]
  dose-dependent decrease of CARA fluorescence, effect of NaNO2: strongly enhanced by the addition of NaNO2
[10]
  CFU reduction of intracellular M. tuberculosis: 1–2 log10
[10]; macrophages activated or not with 50 ng/mL IFNγ
  IFNγ dependence of bactericidal activity against intracellular M. tuberculosis: strictly IFNγ dependent
[11]
  stability in mouse plasma (time to complete transformation): < 5 min

## COCC1=C(C)CS[C@@H]2[C@H](NC(=O)COc3ccccc3)C(=O)N12 [compound 10]
[1]
  activity against nonreplicating M. tuberculosis, in words: inactive

## CCCc1noc(C2=C(C)CS[C@@H]3[C@H](NC(=O)c4ccc(Cl)cc4)C(=O)N23)n1 [compound 23]
[3]
  bactericidal activity against nonreplicating wild-type M. tuberculosis (Figure S2): bactericidal

## C[C@@H](O)[C@H]1C(=O)N2C(C(=O)O)=C([C@H]3CCCO3)S[C@H]12 [faropenem, reference compound]
[1]
  activity against nonreplicating M. tuberculosis, in words: inactive
[13]
  killing of replicating and nongrowing M. tuberculosis: kill both replicating and nongrowing M. tuberculosis
